The results in this text go back to ChEMBL document CHEMBL1909046, “DrugMatrix in vitro pharmacology data”.

Experiment [1] concerns the target Sigma non-opioid intracellular receptor 1 (Homo sapiens, UniProt Q99720). Put plainly: DRUGMATRIX: Sigma1 radioligand binding (ligand: [3H] Haloperidol). As to conditions: Not Active = under 50% inhibition at 10 µM; for Ki: read-out: Ki. In kind it is cell membranes, Jurkat, Membrane.
Experiment [2] concerns the target Carbonic anhydrase 2 (Homo sapiens, UniProt P00918). Description: DRUGMATRIX: Carbonic Anhydrase II enzyme inhibition (substrate: 4-Nitrophenyl acetate (4-NPA)). It counts as tissue-based, Erythrocyte. As to conditions: erythrocyte; Not Active = under 50% inhibition at 10 µM.
A short description of experiment [3]: DRUGMATRIX: Glutamate, AMPA radioligand binding (ligand: [3H] AMPA). Conditions: Not Active = under 50% inhibition at 10 µM. It counts as cell membranes, Rattus norvegicus, Wistar, Cerebral cortex, Membrane.
The target of experiment [4] is T1, Leukotriene C4 synthase (Cavia porcellus, UniProt A6XA80).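 Note: enzyme inhibition assay of leukotriene C4 synthase, using LTA4 as the substrate; in other assays of this panel Not Active means under 50% inhibition at 10 µM.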
T1 sequence (A6XA80 whole entry): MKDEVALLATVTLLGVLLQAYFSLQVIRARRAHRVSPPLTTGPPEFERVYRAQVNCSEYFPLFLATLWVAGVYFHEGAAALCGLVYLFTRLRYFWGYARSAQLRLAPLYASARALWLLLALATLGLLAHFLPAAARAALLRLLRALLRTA
It counts as tissue-based, Lung.

Experiment [5] has as its target T2, Amine oxidase [flavin-containing] A (Homo sapiens, UniProt P21397).
T2 sequence (P21397 whole entry): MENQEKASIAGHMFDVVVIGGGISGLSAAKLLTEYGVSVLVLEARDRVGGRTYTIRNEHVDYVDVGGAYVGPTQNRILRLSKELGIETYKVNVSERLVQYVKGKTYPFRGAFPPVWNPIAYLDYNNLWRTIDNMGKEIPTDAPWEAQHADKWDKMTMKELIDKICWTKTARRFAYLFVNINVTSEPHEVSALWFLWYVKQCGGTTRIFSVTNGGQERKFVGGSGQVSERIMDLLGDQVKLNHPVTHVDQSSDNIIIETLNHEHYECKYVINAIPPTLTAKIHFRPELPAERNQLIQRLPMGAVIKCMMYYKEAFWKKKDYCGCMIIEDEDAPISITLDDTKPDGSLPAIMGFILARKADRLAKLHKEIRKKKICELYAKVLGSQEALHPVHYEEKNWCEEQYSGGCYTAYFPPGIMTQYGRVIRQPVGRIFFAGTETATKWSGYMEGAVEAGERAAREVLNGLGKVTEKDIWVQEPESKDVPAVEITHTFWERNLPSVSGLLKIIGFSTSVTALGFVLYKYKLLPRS
Put plainly: DRUGMATRIX: Monoamine Oxidase MAO-A enzyme inhibition (substrate: Kynuramine). Details: species or system BTI-TN-5B1-4. As to conditions: bti-tn-5b1-4; Not Active = under 50% inhibition at 10 µM.

Experiment [6] addresses cGMP-specific 3',5'-cyclic phosphodiesterase (Homo sapiens, UniProt O76074). Put plainly: DRUGMATRIX: Phosphodiesterase PDE5 enzyme inhibition (substrate: [3H]cGMP + cGMP). In kind it is tissue-based. Conditions: platelet; Not Active = under 50% inhibition at 10 µM.
Experiment [7] deals with Protein kinase C alpha type (Homo sapiens, UniProt P17252). In kind it is cell-based. Conditions: sf9.
The target of experiment [8] is Protein phosphatase 3 catalytic subunit alpha (Homo sapiens, UniProt Q08209). Details: species or system Escherichia coli.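 Note: inhibition of calcineurin (PP2B) enzyme activity, measured with DiFMUP as the substrate; in other assays of this panel Not Active means under 50% inhibition at 10 µM.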

Sequence of Sigma non-opioid intracellular receptor 1 (Q99720 whole entry): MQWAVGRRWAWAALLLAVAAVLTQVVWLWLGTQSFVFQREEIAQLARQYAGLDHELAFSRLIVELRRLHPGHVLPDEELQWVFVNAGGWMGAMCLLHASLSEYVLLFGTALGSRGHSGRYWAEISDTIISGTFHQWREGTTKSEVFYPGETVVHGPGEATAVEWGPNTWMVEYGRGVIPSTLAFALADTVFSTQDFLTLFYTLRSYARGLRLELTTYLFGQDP

Consider `Cc1ccc2cc3c(ccc4ccccc43)c3c2c1CC3` [3-METHYLCHOLANTHRENE], for which the IC50 entry in experiment [1] (jurkat), in experiment [2], in experiment [3], in experiment [4], in experiment [5] and in experiment [6] was “Not Active” each time. For the same molecule, the IC50 entry in experiment [7] and in experiment [8] was “Not Active” throughout. Besides, in experiment [3], the Ki (usually a dissociation constant, usually derived from enzyme kinetics or from competition with a known ligand) was “Not Active”.
With `O=C(O)CCCc1ccc(N(CCCl)CCCl)cc1` [CHLORAMBUCIL], the IC50 entry in experiment [1] (jurkat), in experiment [2], in experiment [3], in experiment [4], in experiment [5] and in experiment [6] was “Not Active” throughout. In addition, the IC50 result in experiment [7] and in experiment [8] was “Not Active” in each case. In experiment [3], the inhibitory constant (Ki) entry is “Not Active”.
In the case of `CC(NC(C)(C)C)C(=O)c1cccc(Cl)c1` (centres undefined) [BUPROPION], the concentration for half-maximal inhibition (IC50) result in experiment [1] (jurkat), in experiment [2], in experiment [3], in experiment [4], in experiment [5] and in experiment [6] was “Not Active” each time. The IC50 entry in experiment [7] and in experiment [8] was “Not Active” in each case. Also, the Ki entry in experiment [3] was “Not Active”.
For `C=C(C)C1(O)OC(=O)C=C1OC` (centres undefined) [PENICILLIC ACID], the IC50 result in experiment [1] (jurkat), in experiment [2], in experiment [3], in experiment [4], in experiment [5] and in experiment [6] was “Not Active” each time. In addition, the IC50 entry in experiment [7] and in experiment [8] was “Not Active” each time. The Ki result in experiment [3] is recorded as “Not Active”.
Consider `CCCC1O[C@@H]2C[C@H]3[C@@H]4CCC5=CC(=O)C=C[C@]5(C)[C@H]4[C@@H](O)C[C@]3(C)[C@]2(C(=O)CO)O1` (some centres undefined) [BUDESONIDE], for which the half-maximal inhibitory concentration (IC50) result in experiment [1] (jurkat), in experiment [2], in experiment [3], in experiment [4], in experiment [5] and in experiment [6] was “Not Active” throughout. The IC50 entry in experiment [7] and in experiment [8] was “Not Active” each time. Besides, in experiment [3], the inhibition constant (Ki) entry was “Not Active”.
For `COCCc1ccc(OCC(O)CNC(C)C)cc1` (centres undefined) [METOPROLOL], the IC50 result in experiment [1] (jurkat), in experiment [2], in experiment [3], in experiment [4], in experiment [5] and in experiment [6] was “Not Active” throughout. Further, the IC50 entry in experiment [7] and in experiment [8] was “Not Active” each time. Moreover, in experiment [3], the inhibition constant (Ki) entry is on record as “Not Active”.
For the molecule `CC1CC(OC(=O)C(O)c2ccccc2)CC(C)(C)C1` (centres undefined) [CYCLANDELATE], the IC50 result in experiment [1] (jurkat), in experiment [2], in experiment [3], in experiment [4], in experiment [5] and in experiment [6] was “Not Active” in each case. For the same molecule, the IC50 result in experiment [7] and in experiment [8] was “Not Active” each time. The Ki result in experiment [3] was “Not Active”.
In the case of `C1CCC(C(CC2CCCCN2)C2CCCCC2)CC1` (centres undefined) [PERHEXILINE], the IC50 – broadly, the point on the concentration scale where inhibition reaches its midpoint – in experiment [1] (read-out: IC50) is 2600 nM; in experiment [2] it was “Not Active”; in experiment [3], “Not Active”; in experiment [4], “Not Active”; in experiment [5], “Not Active”; in experiment [6], “Not Active”. In addition, the IC50 entry in experiment [7] and in experiment [8] was “Not Active” in each case. Moreover, the Ki was 1090 nM in experiment [1] and “Not Active” in experiment [3].
Take `CC(C)[C@H]1C(=O)N2CCC[C@H]2[C@]2(O)O[C@](NC(=O)[C@@H]3C=C4c5cccc6[nH]cc(c56)C[C@H]4N(C)C3)(C(C)C)C(=O)N12` [ERGOCORNINE]: the IC50 result in experiment [1] (jurkat), in experiment [2], in experiment [3], in experiment [4], in experiment [5] and in experiment [6] was “Not Active” throughout. Moreover, the IC50 entry in experiment [7] and in experiment [8] was “Not Active” in each case. In addition, the Ki result in experiment [3] was “Not Active”.
With `CC(C)[C@@]1(NC(=O)[C@@H]2C[C@@H]3c4cccc5[nH]cc(c45)C[C@H]3N(C)C2)O[C@@]2(O)[C@@H]3CCCN3C(=O)[C@H](Cc3ccccc3)N2C1=O.CS(=O)(=O)O` [DIHYDROERGOCRISTINE MESYLATE], the IC50 entry in experiment [1] (jurkat), in experiment [2], in experiment [3], in experiment [4], in experiment [5] and in experiment [6] was “Not Active” in each case. Moreover, the IC50 result in experiment [7] and in experiment [8] was “Not Active” throughout. For the same molecule, the Ki result in experiment [3] is given as “Not Active”.
Turning to `C[C@]12CCC(=O)C=C1CC[C@@H]1[C@@H]2CC[C@@]2(C)[C@H]1CC[C@]2(C)O` [METHYLTESTOSTERONE], the IC50 result in experiment [1] (jurkat), in experiment [2], in experiment [3], in experiment [4], in experiment [5] and in experiment [6] was “Not Active” throughout. Further, the IC50 result in experiment [7] and in experiment [8] was “Not Active” in each case. The Ki result in experiment [3] is given as “Not Active”.
Consider `Nc1nc2c(ncn2COCCO)c(=O)[nH]1` [ACYCLOVIR], for which the IC50 result in experiment [1] (jurkat), in experiment [2], in experiment [3], in experiment [4], in experiment [5] and in experiment [6] was “Not Active” throughout. Besides, the IC50 result in experiment [7] and in experiment [8] was “Not Active” each time. In addition, the Ki entry in experiment [3] is on record as “Not Active”.
As for `CC(C)CN(C[C@@H](O)[C@H](Cc1ccccc1)NC(=O)O[C@H]1CCOC1)S(=O)(=O)c1ccc(N)cc1`, the IC50 entry in experiment [1] (jurkat), in experiment [2], in experiment [3], in experiment [4], in experiment [5] and in experiment [6] was “Not Active” in each case. Moreover, the IC50 entry in experiment [7] and in experiment [8] was “Not Active” throughout. Further, the Ki result in experiment [3] is recorded as “Not Active”.
Regarding `CN(C)CCCN1c2ccccc2Sc2ccccc21` [PROMAZINE], the IC50 is 271 nM in experiment [1] (read-out: IC50); “Not Active” in experiment [2]; “Not Active” in experiment [3]; “Not Active” in experiment [4]; “Not Active” in experiment [5]; “Not Active” in experiment [6]. Also, the half-inhibitory concentration (IC50) result in experiment [7] and in experiment [8] was “Not Active” in each case. Besides, the Ki in experiment [1] was 114 nM; in experiment [3], “Not Active”.
As to `Cc1c(C)c2c(c(C)c1O)CC[C@@](C)(CCC[C@H](C)CCC[C@H](C)CCCC(C)C)O2` [ALPHA-TOCOPHEROL], the half-inhibitory concentration (IC50) result in experiment [1] (jurkat), in experiment [2], in experiment [3], in experiment [4], in experiment [5] and in experiment [6] was “Not Active” throughout. The IC50 entry in experiment [7] and in experiment [8] was “Not Active” each time. The Ki entry in experiment [3] is listed as “Not Active”.
In the case of `Cc1ccc(/N=C/N(C)/C=N/c2ccc(C)cc2C)c(C)c1` [AMITRAZ], the IC50 result in experiment [1] (jurkat), in experiment [2], in experiment [3], in experiment [4], in experiment [5] and in experiment [6] was “Not Active” throughout. The IC50 entry in experiment [7] and in experiment [8] was “Not Active” each time. In experiment [3], the Ki entry is given as “Not Active”.
Consider `CN(C)c1nc(N(C)C)nc(N(C)C)n1` [ALTRETAMINE], for which the IC50 result in experiment [1] (jurkat), in experiment [2], in experiment [3], in experiment [4], in experiment [5] and in experiment [6] was “Not Active” throughout. The IC50 entry in experiment [7] and in experiment [8] was “Not Active” each time. For the same molecule, in experiment [3], the Ki entry is listed as “Not Active”.
Regarding `CNCCCN1c2ccccc2CCc2ccccc21` [DESIPRAMINE], the half-inhibitory concentration (IC50) entry in experiment [1] (jurkat), in experiment [2], in experiment [3], in experiment [4], in experiment [5] and in experiment [6] was “Not Active” each time. Moreover, the IC50 entry in experiment [7] and in experiment [8] was “Not Active” in each case. Further, in experiment [3], the Ki result is recorded as “Not Active”.
